Legend:
[1] = test system: gp120 hydrolysis by salivary IgA and serum IgA; format: biochemical, human
[2] = molecular target: gp120 of HIV-1 strain SF162 (HIV-1, strain SF162)
[3] = molecular target: gp120 of HIV-1 strain BR004 (HIV-1, strain BR004)
[4] = molecular target: gp120 of HIV-1 strain ZA009 (HIV-1, strain ZA009)

| Molecule | inhibition of gp120 hydrolysis by serum and salivary IgA [1] | IC80, HIV neutralization (% decrease of p24; PHA-stimulated PBMC hosts) [2] [µg/mL] | IC80, HIV neutralization (% decrease of p24; PHA-stimulated PBMC hosts) [3] [µg/mL] | IC80, HIV neutralization (% decrease of p24; PHA-stimulated PBMC hosts) [4] [µg/mL] |
| --- | --- | --- | --- | --- |
| c1cnc2c(c1)ccc1cccnc12 [1,10 phenanthroline] | did not detectably inhibit |  |  |  |
| O=C(O)CN(CCN(CC(=O)O)CC(=O)O)CC(=O)O [EDTA] | did not detectably inhibit |  |  |  |
| NC(=O)CI [iodoacetamide] | did not detectably inhibit |  |  |  |
| MAb b12 (antibody) |  | 14.1 | > 20 | > 20 |
| pepstatin A | did not detectably inhibit |  |  |  |

Source: US20090117115A1 (priority 2006, published 2009)
